Reference: patent US12492173B2, “Herbicidal substituted N-tetrazolyl aryl carboxamides” (Bayer Aktiengesellschaft, priority 2019, dated 2025)

Columns and labels:
Format in all cases: in vivo
Stellaria media = test: Pre-emergence herbicidal action, STEME; parameters: key to Herbicidal action against STEME: % activity: 100 = plants have died, 0 = like control plants; details: for herbicidal activity STEME: dosage 320 g/ha, scored visually after 3 weeks vs untreated controls (100% = plants have died)
Outline: (§1)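 Greenhouse pre-emergence test: formulated compound (WP or EC) applied in water to the soil covering sown seeds, 600–800 l/ha, 0.2% wetting agent. Scored visually in percent at 3 weeks versus untreated plants.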

Echinochloa crus-galli = test: Pre-emergence herbicidal action, ECHCG; parameters: key to Herbicidal action against ECHCG: % activity: 100 = plants have died, 0 = like control plants; details: for herbicidal activity ECHCG: dosage 320 g/ha, scored visually after 3 weeks vs untreated controls (100% = plants have died)
Outline: as §1

Veronica persica = test: Pre-emergence herbicidal action, VERPE; parameters: key to Herbicidal action against VERPE: % activity: 100 = plants have died, 0 = like control plants; details: for herbicidal activity VERPE: dosage 320 g/ha, scored visually after 3 weeks vs untreated controls (100% = plants have died)
Outline: as §1

Amaranthus retroflexus = test: Post-emergence herbicidal action, AMARE; parameters: key: % herbicidal action vs untreated; 100 = plants died, 0 = like control
Outline: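 Greenhouse weeds grown in sandy loam were sprayed at the one-leaf stage, 2–3 weeks after sowing, with WP or EC formulations at 600–800 l/ha water plus 0.2% wetting agent. Damage scored visually about 3 weeks later, in percent against untreated controls (100% = plants dead).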

Setaria viridis = test: Pre-emergence herbicidal action, SETVI; details: dosage 320 g/ha, scored visually after 3 weeks vs untreated controls (100% = plants have died)
Outline: as §1

[1] = comparative experiment, 20 g of a.i./ha

CCCn1nnnc1NC(=O)c1ccc(C(F)(F)F)c(CS(C)(=O)=O)c1Cl [Example 3-298]
herbicidal activity STEME (Stellaria media): 90%
herbicidal activity ECHCG (Echinochloa crus-galli): 100%
herbicidal activity VERPE (Veronica persica): 100%
herbicidal action AMARE (Amaranthus retroflexus; Dosage 80 g/ha): 100
herbicidal activity SETVI (Setaria viridis): 100%

CCCn1nnnc1NC(=O)c1ccc(C(F)(F)F)c(C[S+](C)[O-])c1SC (stereo not drawn) [Example 3-162]
herbicidal activity STEME (Stellaria media): 100%
herbicidal activity ECHCG (Echinochloa crus-galli): 100%
herbicidal activity VERPE (Veronica persica): 100%
herbicidal action AMARE (Amaranthus retroflexus; post-emergence, dosage 80 g/ha): 100%
herbicidal activity SETVI (Setaria viridis): 100%

CCn1nnnc1NC(=O)c1ccc(C(F)(F)F)c(C[S+]([O-])CC2CC2)c1Cl (stereo not drawn) [Example 2-315]
herbicidal activity STEME (Stellaria media): 100%
herbicidal activity ECHCG (Echinochloa crus-galli): 100%
herbicidal activity VERPE (Veronica persica): 100%
herbicidal action AMARE (Amaranthus retroflexus; Dosage 80 g/ha): 100
herbicidal activity SETVI (Setaria viridis): 100%

Cn1nnnc1NC(=O)c1ccc(C(F)(F)F)c(C[S+]([O-])C2CC2)c1Cl (racemic) [Example 1-303]
herbicidal activity STEME (Stellaria media): 100%
herbicidal activity ECHCG (Echinochloa crus-galli): 100%
herbicidal activity VERPE (Veronica persica): 100%
herbicidal action AMARE (Amaranthus retroflexus; post-emergence, dosage 80 g/ha): 100%
herbicidal activity SETVI (Setaria viridis): 100%

COCCSCc1c(C(F)(F)F)ccc(C(=O)Nc2nnnn2C)c1Cl [Example 1-305]
herbicidal activity STEME (Stellaria media): 100%
herbicidal activity ECHCG (Echinochloa crus-galli): 100%
herbicidal activity VERPE (Veronica persica): 100%
herbicidal action AMARE (Amaranthus retroflexus; post-emergence, dosage 80 g/ha): 100%
herbicidal activity SETVI (Setaria viridis): 100%

CCCn1nnnc1NC(=O)c1ccc(C(F)F)c(C[S+](C)[O-])c1SC (stereo not drawn) [Example 3-171]
herbicidal activity STEME (Stellaria media): 100%
herbicidal activity ECHCG (Echinochloa crus-galli): 100%
herbicidal activity VERPE (Veronica persica): 100%
herbicidal action AMARE (Amaranthus retroflexus; Dosage 80 g/ha): 100
herbicidal activity SETVI (Setaria viridis): 100%

CCn1nnnc1NC(=O)c1ccc(C(F)F)c(C[S+](C)[O-])c1SC (stereo not drawn) [Example 2-171]
herbicidal activity STEME (Stellaria media): 100%
herbicidal activity ECHCG (Echinochloa crus-galli): 100%
herbicidal activity VERPE (Veronica persica): 100%
herbicidal action AMARE (Amaranthus retroflexus; Dosage 80 g/ha): 100
herbicidal activity SETVI (Setaria viridis): 100%

CCn1nnnc1NC(=O)c1ccc(C(F)(F)F)c(C[S+](C)[O-])c1SC (stereo not drawn) [Example 2-162]
herbicidal activity STEME (Stellaria media): 100%
herbicidal activity ECHCG (Echinochloa crus-galli): 100%
herbicidal activity VERPE (Veronica persica): 90%
herbicidal action AMARE (Amaranthus retroflexus; Dosage 80 g/ha): 90
herbicidal activity SETVI (Setaria viridis): 100%

CCCn1nnnc1NC(=O)c1ccc(C(F)(F)F)c(CSCC2CC2)c1Cl [Example 3-314]
herbicidal activity STEME (Stellaria media): 100%
herbicidal activity ECHCG (Echinochloa crus-galli): 90%
herbicidal activity VERPE (Veronica persica): 100%
herbicidal action AMARE (Amaranthus retroflexus; post-emergence, dosage 80 g/ha): 100%
herbicidal activity SETVI (Setaria viridis): 100%

CSCc1c(C(F)(F)F)ccc(C(=O)Nc2nnnn2C)c1C [Example 1-83]
herbicidal activity STEME (Stellaria media): 100%
herbicidal activity ECHCG (Echinochloa crus-galli): 100%
herbicidal activity VERPE (Veronica persica): 100%
herbicidal action AMARE (Amaranthus retroflexus; post-emergence, dosage 80 g/ha): 100%
herbicidal activity SETVI (Setaria viridis): 100%

CCCn1nnnc1NC(=O)c1ccc(C(F)F)c(CSC)c1SC [Example 3-170]
herbicidal activity STEME (Stellaria media): 100%
herbicidal activity ECHCG (Echinochloa crus-galli): 100%
herbicidal activity VERPE (Veronica persica): 100%
herbicidal action AMARE (Amaranthus retroflexus; Dosage 80 g/ha): 100
herbicidal activity SETVI (Setaria viridis): 100%

Cn1nnnc1NC(=O)c1ccc(C(F)(F)F)c(CSCC2CC2)c1Cl [Example 1-314]
herbicidal activity STEME (Stellaria media): 90%
herbicidal activity ECHCG (Echinochloa crus-galli): 100%
herbicidal activity VERPE (Veronica persica): 100%
herbicidal action AMARE (Amaranthus retroflexus; post-emergence, dosage 80 g/ha): 100%
herbicidal activity SETVI (Setaria viridis): 100%

CCSCc1c(C(F)(F)F)ccc(C(=O)Nc2nnnn2C)c1SCC [Example 1-182]
Herbicidal action against STEME (Stellaria media; [1]): 90
herbicidal activity STEME (Stellaria media): 90%
Herbicidal action against ECHCG (Echinochloa crus-galli; [1]): 80
herbicidal activity ECHCG (Echinochloa crus-galli): 100%
Herbicidal action against VERPE (Veronica persica; [1]): 90
herbicidal activity VERPE (Veronica persica): 100%
herbicidal action AMARE (Amaranthus retroflexus; Dosage 80 g/ha): 90
Herbicidal action against AMARE (Amaranthus retroflexus; comparative experiment, post-emergence, 5 g of a.i./ha): 80
herbicidal activity SETVI (Setaria viridis): 100%
